The record followed here is paper PMC9851200, “Multiparameter phenotypic screening for endogenous TFEB and TFE3 translocation identifies novel chemical series modulating lysosome function” (Autophagy, 2022).

Common to all, as to format: binding
For test [1], the target named is kinases (KINOMEscan panel) (Homo sapiens, UniProt P00533, L858R). To be noted: kinase EGFR(L858R); NEW KINOMEscan.
Test [2] addresses kinases (KINOMEscan panel) (Homo sapiens, UniProt Q8N5S9). To be noted: CAMKK1; NEW KINOMEscan.
Test [3] addresses T1, kinases (KINOMEscan panel) (Homo sapiens, UniProt Q96D53).
T1 sequence (Q96D53 1-544): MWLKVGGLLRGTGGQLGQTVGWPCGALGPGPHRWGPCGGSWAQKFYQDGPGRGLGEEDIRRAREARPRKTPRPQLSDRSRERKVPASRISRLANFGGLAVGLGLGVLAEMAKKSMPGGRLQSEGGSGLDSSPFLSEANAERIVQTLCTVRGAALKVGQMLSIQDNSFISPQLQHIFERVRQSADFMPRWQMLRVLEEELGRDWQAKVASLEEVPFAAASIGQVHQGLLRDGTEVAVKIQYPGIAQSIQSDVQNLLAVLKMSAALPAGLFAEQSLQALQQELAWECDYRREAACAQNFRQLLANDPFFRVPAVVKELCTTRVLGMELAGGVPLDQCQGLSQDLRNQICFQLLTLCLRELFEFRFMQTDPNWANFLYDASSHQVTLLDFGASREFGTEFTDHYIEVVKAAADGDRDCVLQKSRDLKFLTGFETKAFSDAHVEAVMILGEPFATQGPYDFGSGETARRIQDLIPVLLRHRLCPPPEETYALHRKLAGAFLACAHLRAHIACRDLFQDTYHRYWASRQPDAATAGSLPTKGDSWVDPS
To be noted: kinase COQ8B; NEW KINOMEscan.

Test [4] concerns the target kinases (KINOMEscan panel) (Homo sapiens, UniProt P07949). To be noted: kinase RET; NEW KINOMEscan.
The target of test [5] is kinases (KINOMEscan panel) (Homo sapiens, UniProt Q9BYP7). To be noted: NEW KINOMEscan.
Test [6] has as its target kinases (KINOMEscan panel) (Homo sapiens, UniProt P42336, M1043I). To be noted: NEW KINOMEscan.
Test [7] concerns the target kinases (KINOMEscan panel) (Homo sapiens, UniProt P36888, D835H). To be noted: kinase FLT3(D835H); NEW KINOMEscan.
For test [8], the target named is T2, kinases (KINOMEscan panel) (Homo sapiens, UniProt O14965).
T2 sequence (O14965 1-403): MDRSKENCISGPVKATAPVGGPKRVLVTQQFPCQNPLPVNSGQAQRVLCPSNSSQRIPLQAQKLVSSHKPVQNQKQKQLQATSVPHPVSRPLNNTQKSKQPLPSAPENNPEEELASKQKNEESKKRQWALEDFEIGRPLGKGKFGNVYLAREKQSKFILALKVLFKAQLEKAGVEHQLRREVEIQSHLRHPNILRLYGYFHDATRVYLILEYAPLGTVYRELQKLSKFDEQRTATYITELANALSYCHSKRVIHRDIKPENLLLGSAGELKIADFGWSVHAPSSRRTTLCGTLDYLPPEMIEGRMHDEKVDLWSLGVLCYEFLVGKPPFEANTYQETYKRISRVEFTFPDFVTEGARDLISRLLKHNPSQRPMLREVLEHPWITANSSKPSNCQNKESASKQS
The following applies: NEW KINOMEscan.

For test [9], the target named is kinases (KINOMEscan panel) (Homo sapiens, UniProt P41240). To be noted: kinase CSK; NEW KINOMEscan.
Test [10] has as its target kinases (KINOMEscan panel) (Homo sapiens, UniProt Q9UKE5). The following applies: TNIK; NEW KINOMEscan.
Test [11] deals with kinases (KINOMEscan panel) (Homo sapiens, UniProt O95819). The following applies: MAP4K4; NEW KINOMEscan.
In test [12] the target is kinases (KINOMEscan panel) (Homo sapiens, UniProt Q07002). The following applies: kinase CDK18; NEW KINOMEscan.
The target of test [13] is kinases (KINOMEscan panel) (Homo sapiens, UniProt P53350). To be noted: PLK1; NEW KINOMEscan.
The target in test [14] is kinases (KINOMEscan panel) (Homo sapiens, UniProt P15056, V600E). The following applies: kinase BRAF(V600E); NEW KINOMEscan.
The target of test [15] is kinases (KINOMEscan panel) (Homo sapiens, UniProt P42684). The following applies: ABL2; NEW KINOMEscan.
The target of test [16] is T3, kinases (KINOMEscan panel) (Homo sapiens, UniProt O15111).
T3 sequence (O15111 1-745): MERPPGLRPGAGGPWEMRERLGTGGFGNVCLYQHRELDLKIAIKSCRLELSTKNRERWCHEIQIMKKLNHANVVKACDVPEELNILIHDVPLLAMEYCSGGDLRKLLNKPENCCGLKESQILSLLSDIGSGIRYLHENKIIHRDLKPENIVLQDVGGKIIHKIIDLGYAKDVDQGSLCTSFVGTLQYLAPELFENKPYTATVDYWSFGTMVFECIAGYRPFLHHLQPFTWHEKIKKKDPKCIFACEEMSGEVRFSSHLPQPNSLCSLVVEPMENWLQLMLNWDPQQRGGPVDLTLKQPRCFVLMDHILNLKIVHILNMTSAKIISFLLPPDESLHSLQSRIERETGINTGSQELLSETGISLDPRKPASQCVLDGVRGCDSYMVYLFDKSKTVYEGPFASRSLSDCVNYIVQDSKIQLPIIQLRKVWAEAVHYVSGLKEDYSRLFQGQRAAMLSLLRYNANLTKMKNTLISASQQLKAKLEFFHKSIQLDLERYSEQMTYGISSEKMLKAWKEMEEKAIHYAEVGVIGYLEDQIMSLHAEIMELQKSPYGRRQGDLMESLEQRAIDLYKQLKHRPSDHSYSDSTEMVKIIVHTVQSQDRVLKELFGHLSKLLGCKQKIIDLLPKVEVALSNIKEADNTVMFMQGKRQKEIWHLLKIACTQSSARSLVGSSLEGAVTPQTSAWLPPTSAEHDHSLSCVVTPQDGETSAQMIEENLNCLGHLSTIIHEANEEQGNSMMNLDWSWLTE

For test [17], the target named is kinases (KINOMEscan panel) (Homo sapiens, UniProt Q9NQU5). To be noted: PAK6; NEW KINOMEscan.
Sequence of kinases (KINOMEscan panel) (Homo sapiens, UniProt Q9NQU5) (Q9NQU5 whole entry): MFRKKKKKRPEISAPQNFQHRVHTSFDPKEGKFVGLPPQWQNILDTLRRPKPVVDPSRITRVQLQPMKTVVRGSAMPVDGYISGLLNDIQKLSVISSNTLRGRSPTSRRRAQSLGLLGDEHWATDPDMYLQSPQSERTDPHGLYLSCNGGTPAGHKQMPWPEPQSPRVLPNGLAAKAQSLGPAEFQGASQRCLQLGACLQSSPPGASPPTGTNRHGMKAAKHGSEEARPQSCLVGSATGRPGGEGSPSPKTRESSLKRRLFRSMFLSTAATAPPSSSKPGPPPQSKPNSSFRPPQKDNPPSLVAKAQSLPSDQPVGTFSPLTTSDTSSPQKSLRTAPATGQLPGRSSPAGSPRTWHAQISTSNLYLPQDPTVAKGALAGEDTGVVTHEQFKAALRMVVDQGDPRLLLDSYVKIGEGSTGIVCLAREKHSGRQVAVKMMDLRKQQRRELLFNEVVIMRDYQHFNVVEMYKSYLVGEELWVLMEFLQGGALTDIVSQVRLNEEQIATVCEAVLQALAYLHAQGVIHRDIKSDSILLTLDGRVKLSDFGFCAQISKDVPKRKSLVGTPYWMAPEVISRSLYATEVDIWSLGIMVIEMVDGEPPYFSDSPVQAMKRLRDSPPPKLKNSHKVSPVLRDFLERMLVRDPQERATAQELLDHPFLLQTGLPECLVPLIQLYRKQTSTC

Sequence of kinases (KINOMEscan panel) (Homo sapiens, UniProt P42336, M1043I) (P42336 whole entry M1043I): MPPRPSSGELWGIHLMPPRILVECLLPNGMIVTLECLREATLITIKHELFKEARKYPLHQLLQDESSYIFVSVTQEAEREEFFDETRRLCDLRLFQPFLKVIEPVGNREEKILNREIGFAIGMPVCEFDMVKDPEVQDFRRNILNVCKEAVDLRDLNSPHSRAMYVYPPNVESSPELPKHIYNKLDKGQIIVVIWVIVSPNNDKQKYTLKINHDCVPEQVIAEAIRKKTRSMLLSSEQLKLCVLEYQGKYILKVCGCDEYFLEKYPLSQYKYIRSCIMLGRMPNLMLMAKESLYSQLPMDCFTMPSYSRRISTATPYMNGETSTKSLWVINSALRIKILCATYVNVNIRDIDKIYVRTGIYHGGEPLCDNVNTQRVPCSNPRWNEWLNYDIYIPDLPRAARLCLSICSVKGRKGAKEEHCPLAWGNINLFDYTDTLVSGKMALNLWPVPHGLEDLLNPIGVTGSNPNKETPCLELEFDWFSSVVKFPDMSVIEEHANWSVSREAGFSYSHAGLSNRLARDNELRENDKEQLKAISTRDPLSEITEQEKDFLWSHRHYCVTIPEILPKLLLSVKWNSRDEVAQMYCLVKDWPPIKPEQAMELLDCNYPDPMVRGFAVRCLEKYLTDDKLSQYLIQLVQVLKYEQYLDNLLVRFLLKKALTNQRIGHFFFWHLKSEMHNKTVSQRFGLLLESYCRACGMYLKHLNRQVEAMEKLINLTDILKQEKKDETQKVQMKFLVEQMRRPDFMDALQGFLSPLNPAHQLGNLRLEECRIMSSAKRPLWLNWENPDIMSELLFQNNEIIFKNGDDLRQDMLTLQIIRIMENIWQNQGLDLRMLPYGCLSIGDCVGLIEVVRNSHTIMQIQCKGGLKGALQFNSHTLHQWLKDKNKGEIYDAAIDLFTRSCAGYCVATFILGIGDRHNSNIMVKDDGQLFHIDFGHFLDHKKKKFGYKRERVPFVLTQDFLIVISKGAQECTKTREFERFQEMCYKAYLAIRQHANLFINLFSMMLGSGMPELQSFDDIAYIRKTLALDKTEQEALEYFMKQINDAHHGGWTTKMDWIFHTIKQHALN
Sequence of kinases (KINOMEscan panel) (Homo sapiens, UniProt P42684) (P42684 whole entry): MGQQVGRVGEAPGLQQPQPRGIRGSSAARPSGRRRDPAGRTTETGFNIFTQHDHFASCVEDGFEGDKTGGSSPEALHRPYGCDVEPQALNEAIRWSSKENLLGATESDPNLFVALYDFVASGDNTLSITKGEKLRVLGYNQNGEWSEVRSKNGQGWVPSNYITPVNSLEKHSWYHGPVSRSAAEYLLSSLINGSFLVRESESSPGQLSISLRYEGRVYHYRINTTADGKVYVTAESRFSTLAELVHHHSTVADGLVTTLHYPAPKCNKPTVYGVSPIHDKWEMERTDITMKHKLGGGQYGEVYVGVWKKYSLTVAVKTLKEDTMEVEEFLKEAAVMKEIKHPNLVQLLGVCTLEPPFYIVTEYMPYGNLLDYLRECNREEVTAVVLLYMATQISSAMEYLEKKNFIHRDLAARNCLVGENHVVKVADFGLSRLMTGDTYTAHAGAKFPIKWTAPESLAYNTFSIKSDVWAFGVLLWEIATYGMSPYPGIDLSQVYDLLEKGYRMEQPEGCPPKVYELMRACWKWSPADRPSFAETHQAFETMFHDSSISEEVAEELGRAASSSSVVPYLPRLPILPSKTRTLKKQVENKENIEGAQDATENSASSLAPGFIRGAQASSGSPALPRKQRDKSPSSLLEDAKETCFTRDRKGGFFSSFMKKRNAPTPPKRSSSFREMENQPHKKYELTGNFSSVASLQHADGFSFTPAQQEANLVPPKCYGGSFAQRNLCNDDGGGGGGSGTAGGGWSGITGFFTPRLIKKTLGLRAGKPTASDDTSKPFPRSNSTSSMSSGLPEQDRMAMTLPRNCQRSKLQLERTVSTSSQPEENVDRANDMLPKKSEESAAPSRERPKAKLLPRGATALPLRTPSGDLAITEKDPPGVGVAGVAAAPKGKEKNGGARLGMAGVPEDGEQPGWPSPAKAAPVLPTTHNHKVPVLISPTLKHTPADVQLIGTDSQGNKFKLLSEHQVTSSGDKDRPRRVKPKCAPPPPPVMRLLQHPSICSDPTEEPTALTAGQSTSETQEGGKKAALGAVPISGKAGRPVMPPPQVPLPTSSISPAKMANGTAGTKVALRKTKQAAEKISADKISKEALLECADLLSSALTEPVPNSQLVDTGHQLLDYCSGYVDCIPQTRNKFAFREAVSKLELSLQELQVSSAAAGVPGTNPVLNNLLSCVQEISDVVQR
Sequence of kinases (KINOMEscan panel) (Homo sapiens, UniProt Q8N5S9) (Q8N5S9 whole entry): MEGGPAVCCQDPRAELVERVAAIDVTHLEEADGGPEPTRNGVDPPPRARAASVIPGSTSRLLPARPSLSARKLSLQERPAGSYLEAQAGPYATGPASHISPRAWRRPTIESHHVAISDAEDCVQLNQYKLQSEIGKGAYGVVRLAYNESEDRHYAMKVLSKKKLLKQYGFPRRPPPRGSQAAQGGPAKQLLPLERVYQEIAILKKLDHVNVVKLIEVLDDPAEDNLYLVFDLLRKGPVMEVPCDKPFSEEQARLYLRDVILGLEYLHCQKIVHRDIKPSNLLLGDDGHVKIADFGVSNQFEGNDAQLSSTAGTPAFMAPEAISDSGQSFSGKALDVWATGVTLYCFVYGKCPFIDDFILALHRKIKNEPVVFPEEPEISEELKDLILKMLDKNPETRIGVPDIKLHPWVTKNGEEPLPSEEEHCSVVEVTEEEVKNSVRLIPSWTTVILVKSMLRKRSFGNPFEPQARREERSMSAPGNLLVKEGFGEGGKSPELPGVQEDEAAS
Sequence of kinases (KINOMEscan panel) (Homo sapiens, UniProt P53350) (P53350 whole entry): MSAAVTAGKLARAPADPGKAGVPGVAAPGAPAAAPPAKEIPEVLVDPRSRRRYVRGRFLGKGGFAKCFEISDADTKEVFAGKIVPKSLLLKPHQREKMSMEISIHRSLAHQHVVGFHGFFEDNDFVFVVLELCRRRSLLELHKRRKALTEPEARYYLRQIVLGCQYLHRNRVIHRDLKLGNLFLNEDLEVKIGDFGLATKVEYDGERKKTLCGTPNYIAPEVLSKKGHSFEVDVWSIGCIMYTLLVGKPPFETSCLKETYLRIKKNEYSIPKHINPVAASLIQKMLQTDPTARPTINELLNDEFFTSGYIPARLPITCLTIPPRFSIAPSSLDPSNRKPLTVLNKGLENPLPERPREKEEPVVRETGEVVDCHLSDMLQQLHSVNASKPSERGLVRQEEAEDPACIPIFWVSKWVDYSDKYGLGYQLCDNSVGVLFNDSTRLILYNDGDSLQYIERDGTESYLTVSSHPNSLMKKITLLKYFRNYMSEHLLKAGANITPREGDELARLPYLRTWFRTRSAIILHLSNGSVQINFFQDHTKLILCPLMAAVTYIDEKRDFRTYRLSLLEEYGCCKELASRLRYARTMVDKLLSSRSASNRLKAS
Sequence of kinases (KINOMEscan panel) (Homo sapiens, UniProt P15056, V600E) (P15056 whole entry V600E): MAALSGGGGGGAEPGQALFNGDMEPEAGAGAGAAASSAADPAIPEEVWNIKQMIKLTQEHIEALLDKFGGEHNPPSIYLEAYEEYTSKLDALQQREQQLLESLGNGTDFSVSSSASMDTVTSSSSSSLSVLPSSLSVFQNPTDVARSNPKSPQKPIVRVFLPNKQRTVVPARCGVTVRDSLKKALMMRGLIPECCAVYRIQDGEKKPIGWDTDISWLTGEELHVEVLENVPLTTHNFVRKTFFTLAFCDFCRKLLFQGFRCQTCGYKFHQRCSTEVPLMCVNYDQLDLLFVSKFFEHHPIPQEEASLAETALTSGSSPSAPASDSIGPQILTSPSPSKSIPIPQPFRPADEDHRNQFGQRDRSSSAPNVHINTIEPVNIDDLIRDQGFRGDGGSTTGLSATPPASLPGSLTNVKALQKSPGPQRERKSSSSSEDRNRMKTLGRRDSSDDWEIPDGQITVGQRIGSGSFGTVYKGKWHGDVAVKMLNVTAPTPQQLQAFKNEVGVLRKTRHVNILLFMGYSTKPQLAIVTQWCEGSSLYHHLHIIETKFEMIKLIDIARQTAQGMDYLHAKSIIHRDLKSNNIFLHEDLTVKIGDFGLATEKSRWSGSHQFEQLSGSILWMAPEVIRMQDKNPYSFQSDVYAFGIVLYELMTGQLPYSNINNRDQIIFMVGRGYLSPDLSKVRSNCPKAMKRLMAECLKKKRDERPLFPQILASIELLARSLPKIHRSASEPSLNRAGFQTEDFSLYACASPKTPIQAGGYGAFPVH

For the molecule `Cc1cccc(-c2nc(Nc3ccc4nn(C)cc4c3)c3ccccc3n2)n1` [NK167], the “KINOMEscan EGFR(L858R)” value in test [1] was 0. In addition, the “KINOMEscan CAMKK1” value in [2] turned out to be 0. Moreover, in [3], the “KINOMEscan COQ8B” value amounted to 0. Moreover, the “KINOMEscan RET” value in test [4] is given as 0. For the same molecule, in test [5], the “KINOMEscan WNK3” value was 0. Further, the “KINOMEscan PIK3CA(M1043I)” value in [6] was found to be 17. The “KINOMEscan FLT3(D835H)” value in [7] is recorded as 0. Besides, the “KINOMEscan AURKA” value in [8] is listed as 3. The “KINOMEscan CSK” value in test [9] came out at 6. In addition, in test [10], the “KINOMEscan TNIK” value amounted to 0. Also, the “KINOMEscan MAP4K4” value in test [11] turned out to be 1. In test [12], the “KINOMEscan CDK18” value is reported as 0. The “KINOMEscan PLK1” value in [13] amounted to 0. Moreover, the “KINOMEscan BRAF(V600E)” value in [14] came to 0. Also, the “KINOMEscan ABL2” value in [15] is reported as 0. Further, the “KINOMEscan CHUK/IKK-alpha” value in [16] is reported as 0. For the same molecule, the “KINOMEscan PAK6” value in test [17] was determined as 0.
`Cc1cccc(-c2nc(N(C)c3ccc4ncsc4c3)c3ccccc3n2)n1` [NK-161]: the “KINOMEscan EGFR(L858R)” value in test [1] is on record as 2. Further, in test [2], the “KINOMEscan CAMKK1” value is given as 9. The “KINOMEscan COQ8B” value in test [3] amounted to 0. The “KINOMEscan RET” value in test [4] was 0. The “KINOMEscan WNK3” value in [5] was 28. For the same molecule, the “KINOMEscan PIK3CA(M1043I)” value in test [6] came to 10. The “KINOMEscan FLT3(D835H)” value in test [7] was 4. In [8], the “KINOMEscan AURKA” value is 22. In addition, the “KINOMEscan CSK” value in [9] is listed as 0. Further, the “KINOMEscan TNIK” value in [10] stood at 0. The “KINOMEscan MAP4K4” value in [11] was 0. The “KINOMEscan CDK18” value in test [12] turned out to be 0. Also, in test [13], the “KINOMEscan PLK1” value turned out to be 4. Further, the “KINOMEscan BRAF(V600E)” value in test [14] turned out to be 0. Further, in test [15], the “KINOMEscan ABL2” value is on record as 8. The “KINOMEscan CHUK/IKK-alpha” value in [16] was 20. Besides, the “KINOMEscan PAK6” value in test [17] is recorded as 0.
